This passage reports Ki, Emax and EC50 results from US10106578B2, “Melanocortin-1 receptor-specific linear peptides” (Palatin Technologies, Inc., priority 2012, dated 2018).

One assay concerns the target T1, hMCR-4 (Homo sapiens, UniProt P32245).
T1 construct: expressed in transfected cells; host or cells: HEK-293 cells (membrane homogenates)
As to the kind of experiment: Competitive inhibition binding assay using [I125]-NDP-α-MSH, hMCR-4 membranes. Particulars: HEK-293 membranes, recombinant human MCR-4, [I125]-NDP-α-MSH; read-out: MC-4 Ki (average). The protocol:
(§1) A competitive inhibition binding assay was performed using membrane homogenates prepared from HEK-293 cells that express recombinant hMCR-1a or hMCR-4 (in each instance where the h prefix refers to human), or alternatively membrane homogenates from B16-F10 mouse melanoma cells containing endogenous murine MCR-1. In the examples that follow, all MCR-1 and MCR-4 values are for human recombinant receptors, unless otherwise noted. Assays were performed in 96 well polypropylene round-bottom plates (VWR catalog number 12777-030). Membrane homogenates were incubated with 0.1 nM [I^125]-NDP-α-MSH (Perkin Elmer) and increasing concentrations of test peptides of the present invention in buffer containing 25 mM HEPES buffer (pH 7.5) with 100 mM NaCl, 2 mM CaCl2, 2 mM MgCl2, 0.3 mM 1,10-phenanthroline, and 0.2% bovine serum albumin. After incubation for 90 minutes at 37° C., the assay mixture was filtered onto GF/B Unifilter plates (Perkin-Elmer catalog number 6005177) and washed with 3 mL of ice-cold buffer per well. Filters were air dried and 35 μL of scintillation cocktail added to each well. Plates were counted in a Microbeta counter for bound radioactivity. Non-specific binding was measured by inhibition of binding of [I^125]-NDP-α-MSH in the presence of 1 μM NDP-α-MSH. Maximal specific binding (100%) was defined as the difference in radioactivity (cpm) bound to cell membranes in the absence and presence of 1 μM NDP-α-MSH. Each assay was conducted in duplicate and the actual mean values are described, with results less than 0% reported as 0%. Ki values for peptides of the present invention were determined using Graph-Pad PRISM® curve-fitting software.
(§2) Peptides of the following structures were synthesized and purified as described in Section 5 above, with the resulting peptide having the structure depicted. After synthesis and purification, the foregoing peptide was tested as described in Section 8 above, and average MCR-1 and MCR-4 Ki values determined as indicated. All Ki values were determined using [I^125]-NDP-α-MSH. All results are expressed in nM except for Emax values, which are percentage values.

The next assay has as its target T2, hMCR-1a (Homo sapiens, UniProt Q01726).
T2 construct: expressed in transfected cells; host or cells: HEK-293 cells (membrane homogenates)
The assay is described as follows: Competitive inhibition binding assay using [I125]-NDP-α-MSH, hMCR-1a membranes. As to conditions: HEK-293 membranes, recombinant human MCR-1, [I125]-NDP-α-MSH; read-out: MC-1 Ki (average). The protocol: as §1, §2

Another assay concerns the target T3, hMCR-1 (Homo sapiens, UniProt Q01726).
T3 construct: endogenous in cells; host or cells: HBL human melanoma cell line
The assay is described as follows: Assay for agonist activity: cAMP accumulation in HBL human melanoma cells. Type of assay: cell-based. Particulars: for Emax: compared to reference agonist NDP-α-MSH, read-out: MC-1 Emax (average; cAMP HBL); for EC50: read-out: MC-1 EC50 (average; cAMP HBL).
Source text: Accumulation of intracellular cAMP was examined as a measure of the ability of the peptides of the present invention to elicit a functional response in a human melanoma cell line, HBL, that express hMCR-1 (see Kang, L., et al., “A selective small molecule agonist of melanocortin-1 receptor inhibits lipopolysaccharide-induced cytokine accumulation and leukocyte infiltration in mice,” J. Leuk. Biol. 80:897-904 (2006)) or HEK-293 cells that express hMCR-4. Confluent HBL cells that express hMCR-1 or HEK-293 cells that express recombinant hMCR-4 were detached from culture plates by incubation in enzyme-free cell dissociation buffer. Dispersed cells were suspended in Earle's Balanced Salt Solution containing 10 mM HEPES (pH 7.5), 1 mM MgCl2, 1 mM glutamine, 0.5% albumin and 0.3 mM 3-isobutyl-1-methyl-xanthine (IBMX), a phosphodiesterase inhibitor. The cells were plated in 96-well plates at a density of 0.4×10^5 cells per well for HBL cells and 0.5×10^5 cells per well for HEK-293 cells and pre-incubated for 10 minutes. Cells were exposed for 15 minutes at 37° C. to peptides of the present invention dissolved in DMSO (final DMSO concentration of 1%) at a concentration range of 0.05-5000 nM in a total assay volume of 200 μL. NDP-α-MSH was used as the reference agonist. cAMP levels were determined by an HTRF® cAMP cell-based assay system from Cisbio Bioassays utilizing cryptate-labeled anti-cAMP and d2-labeled cAMP, with plates read on a Perkin-Elmer Victor plate reader at […]. Data analysis was performed by nonlinear regression analysis with Graph-Pad PRISM® software. Maximum efficacy (Emax) values were determined for each test peptide of the present invention, compared to that achieved by the reference melanocortin agonist NDP-α-MSH.
as §2

Molecules are shown by their SMILES. Where a SMILES comes first, the peptide text is derived from it. [ ]: non-standard residue; d: D form. Nle = CCCC[C@H](N)C(=O)O; Orn = NCCC[C@H](N)C(=O)O; Dab = NCC[C@H](N)C(=O)O

T3 sequence (Q01726 whole entry): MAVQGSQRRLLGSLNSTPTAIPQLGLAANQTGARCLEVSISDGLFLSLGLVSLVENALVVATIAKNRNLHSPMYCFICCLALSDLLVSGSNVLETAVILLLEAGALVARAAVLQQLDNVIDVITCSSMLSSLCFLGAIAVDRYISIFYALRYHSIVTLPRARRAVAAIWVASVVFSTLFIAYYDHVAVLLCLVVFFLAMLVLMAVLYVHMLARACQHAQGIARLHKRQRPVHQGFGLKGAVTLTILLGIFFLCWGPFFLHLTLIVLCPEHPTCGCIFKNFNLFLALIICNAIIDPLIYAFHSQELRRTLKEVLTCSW
T2 sequence (Q01726 whole entry): as above
T1 sequence (P32245 whole entry): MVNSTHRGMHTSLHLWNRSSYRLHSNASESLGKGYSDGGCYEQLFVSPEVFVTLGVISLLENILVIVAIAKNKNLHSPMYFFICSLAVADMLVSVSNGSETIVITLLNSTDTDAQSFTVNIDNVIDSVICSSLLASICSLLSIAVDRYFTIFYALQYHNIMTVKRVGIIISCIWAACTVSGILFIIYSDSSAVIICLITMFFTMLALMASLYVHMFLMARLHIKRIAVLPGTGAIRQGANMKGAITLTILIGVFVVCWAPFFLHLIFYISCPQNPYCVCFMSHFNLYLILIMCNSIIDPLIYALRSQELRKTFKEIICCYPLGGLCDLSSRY

Broadly, the Ki is the dissociation constant of the complex between target and ligand, obtained from inhibition or displacement. The Emax is the greatest response seen or fitted, relative to the assay's reference. For `CCCC[C@H](NC(C)=O)C(=O)N[C@@H](C)C(=O)N[C@@H](CCCN)C(=O)N[C@H](Cc1ccccc1)C(=O)N[C@@H](CCCNC(=N)N)C(=O)N[C@@H](C)C(=O)N[C@@H](Cc1c[nH]c2ccccc12)C(N)=O` [Example 9.21, Ac-Nle-Ala-Orn-D-Phe-Arg-Ala-Trp-NH2] (Ac-[Nle]A[Orn][dF]RAW-NH2), the Ki came out at 7.58 µM on hMCR-4 and 0.0003 µM at hMCR-1a. Besides, the Emax at hMCR-1 is 107%.
Consider `CCCC[C@H](NC(C)=O)C(=O)N[C@H](Cc1ccccc1)C(=O)N[C@@H](CCCNC(=N)N)C(=O)N[C@@H](C)C(=O)N[C@@H](Cc1c[nH]c2ccccc12)C(N)=O` [Example 9.15, Ac-Nle-D-Phe-Arg-Ala-Trp-NH2] (Ac-[Nle][dF]RAW-NH2), for which the Ki at hMCR-4 stood at 7.12 µM; at hMCR-1a it was 1.29 µM. The Emax on hMCR-1 came to 67%.
For orientation: EC50 means the concentration giving half of the maximal effect. On to `CCCC[C@H](NC(C)=O)C(=O)N[C@@H](C)C(=O)N[C@@H](Cc1c[nH]cn1)C(=O)N[C@H](Cc1ccccc1)C(=O)N[C@@H](CCCNC(=N)N)C(=O)N1CCC[C@H]1C(=O)N[C@H](Cc1c[nH]c2ccccc12)C(N)=O` [Example 9.13, Ac-Nle-Ala-His-D-Phe-Arg-Pro-D-Trp-NH2] (Ac-[Nle]AH[dF]RP[dW]-NH2), for which the inhibition constant Ki at hMCR-4 came to 0.65 µM. Further, the Ki at hMCR-1a came to 0.002 µM. At hMCR-1, the Emax was determined as 90% and the EC50 is 0.00017 µM.
As to `CCCC[C@H](NC(C)=O)C(=O)N[C@@H](C)C(=O)N[C@@H](CCN)C(=O)N[C@H](Cc1ccccc1)C(=O)N[C@@H](CCCNC(=N)N)C(=O)N[C@@H](C)C(=O)N[C@@H](Cc1c[nH]c2ccccc12)C(N)=O` [Example 9.22, Ac-Nle-Ala-Dab-D-Phe-Arg-Ala-Trp-NH2] (Ac-[Nle]A[Dab][dF]RAW-NH2), the values for the Ki on hMCR-4 and at hMCR-1a were 7.85 µM and 0.002 µM, respectively. Besides, the maximal effect (Emax) on hMCR-1 was found to be 101%.
For `CCCC[C@H](NC(C)=O)C(=O)N[C@@H](C)C(=O)N[C@@H](Cc1c[nH]cn1)C(=O)N[C@H](Cc1ccccc1)C(=O)N[C@@H](CCCNC(=N)N)C(=O)N1CCC[C@@H]1C(=O)N[C@@H](Cc1c[nH]c2ccccc12)C(N)=O` [Example 9.11, Ac-Nle-Ala-His-D-Phe-Arg-D-Pro-Trp-NH2] (Ac-[Nle]AH[dF]R[dP]W-NH2), the Ki was 6.2 µM on hMCR-4 and 0.014 µM at hMCR-1a. For the same molecule, the maximal response (Emax) on hMCR-1 came to 70%. Moreover, the EC50 at hMCR-1 worked out at 0.001 µM.
